According to patent publication US12161116B1, “Ethyl-2-{[(2,4-dichlorobenzoyl carbamothioyl]amino}-4,5,6,7-tetrahydro-1-benzothiophene-3-carboxylate as an eco-friendly insecticidal agent against Spodoptera littoralis (boisd.)” (priority 2023, dated 2024):
Values after ≈ are worked out from the molar mass of the structure shown. Like-named read-outs stand apart in the source and are kept apart here.

Test system: Spodoptera littoralis
Assay: Insecticidal bioassay screening (castor leaf dip) on second and fourth instar larvae
Type: in vivo
Details: for Toxicity index %: 72 hrs, Diflubenzuron's LC50 / the compound's LC50 × 100; for LC90 (mg/L) at 95%: after 72 hrs of treatment, treated castor leaves; for LC50: Spodoptera littoralis, in Gossypium hirsutum, foliar, 72 h
Method: Five concentrations (200, 100, 50, 25, 12.5 ppm) were designed for this synthetic compound and the reference Diflubenzuron compound as the dynamic ingredients based on mg/L via diluting the commercial formulation.
In this experiment, castor leaves are immersed in each of the previously prepared concentrations of the components for 10 seconds and then left to dry for 60 minutes. Larvae of the second and fourth instars of each checked strain are prepared with treated leaves in gauze-covered glass containers for 72 hrs. An untreated control is made in which leaves are dipped in triton x-100 and distilled water only. Then the preserved leaves were removed & fresh, untreated leaves were provided for 72 hours. Three replicates (10 larvae each) were checked for each concentration. Daily inspection was carried out for all treatments and mortality percentages were recorded 3 days (72 hours) after treatment. The average mortality percentage was corrected employing Abbott's formula. The corrected mortality rate for each of the previously synthesized compounds is statistically calculated according to Finney (1970). Through this rate, the corresponding concentration test lines (LDP lines) are assessed.

[1] = read-out: LC50 (mg/L) at 95%, 2nd instar larvae, after 72 hrs of treatment, treated castor leaves
[2] = read-out: LC50 (mg/L) at 95%, 4th instar larvae, after 72 hrs of treatment, treated castor leaves

O=C(NC(=O)c1c(F)cccc1F)Nc1ccc(Cl)cc1 [Diflubenzuron]
Toxicity index % (2nd instar larvae): 100%
LC90 (mg/L) at 95% (2nd instar larvae): 520.0 mg/L (≈ 1670 µM)
Toxicity index % (4th instar larvae): 100%
LC90 (mg/L) at 95% (4th instar larvae): 1540.5 mg/L (≈ 4960 µM)
LC50 [1]: 45.2 mg/L (≈ 145 µM)
LC50 [2]: 144 mg/L (≈ 464 µM)

CCOC(=O)c1c(NC(=S)NC(=O)c2ccc(Cl)cc2Cl)sc2c1CCCC2 [Ethyl-2-{[(2,4-dichlorobenzoyl)carbamothioyl]amino}-4,5,6,7-tetrahydro-1-benzothiophene-3-carboxylate]
LC50 [1]: ~270 mg/L (≈ 591 µM)
LC50 [2]: ~631 mg/L (≈ 1380 µM)
